{"source": "patent US20100279942A1", "about": "“METHODS FOR TREATING MOTOR NEURON DISEASE” (priority 2004, published 2010)", "key": {"[1]": {"test_system": "NSC34 cells transformed with SOD1 mutant (A4T-SOD1, G85R-SOD1, G93R-SOD1) genes", "assay": "Neuronal cell death test, Trypan blue exclusion assay, NSC34 cells transformed with SOD1 mutant genes", "format": "cell-based, mouse", "protocol": "NSC34 cell, the hybrid cell of primary cultured, motor neuron-system embryonic mouse spinal cord cell with mouse neuroblastoma NTG18 cell, was cultured in […] medium containing 10% FBS and antibiotics (Cashman N R, et al., 1992, Dev Dyn 194: 209-221; and Durham H D, et al, 1993, Neurotoxicology 14: 387-395).\nThe NSC34 cells (7×10^4 cells/well, 6-well plate, 12 to 16-hour culture in DMEM (10% FBS) medium) were transformed with wild-type or SOD1 mutant (A4T, G85R, and G93R) genes by lipofection (0.5 μg of each SOD1 gene; 1 μl of LipofectAMINE; 2 μl of PLUS Reagent) under serum-free conditions for 3 hours and cultured for 21 hours in DMEM (10% FBS) and after 48 hours in DMED supplemented with N2 supplement (Invitrogen). After 72 hours of the transformation, cell mortality was measured by Trypan blue exclusion assay in the same way as above.\nF11 or NSC34 cells were transformed with pEF-BOS, A4T-SOD1, G85R-SOD1, or G93R-SOD1 cDNA in the presence of increasing concentrations (10 aM, 1 fM, 100 fM, 10 pM, 1 nM, and 100 nM) of ADNF. After 72 hours, cell mortality was measured by Trypan blue exclusion assay."}, "[2]": {"test_system": "neuronal cell death caused by amyloid β", "conditions": "cited from earlier work"}}, "note": "Ends that are not written are not given here.", "data": [{"sequence": "SALLRSIPA [ADNF, short peptide consisting of nine amino acid residues]", "values": [{"measurement": "inhibition of neuronal cell death caused by SOD1 mutant genes", "setting": "[1]; 100 fM ADNF, three SOD1 mutant genes, 72 hours", "value": "can completely inhibit neuronal cell death"}, {"measurement": "inhibitory effect on neuronal cell death at high concentration", "setting": "[1]; ADNF at concentrations equal to or above 10 nM", "value": "not decreased"}, {"measurement": "neuroprotective action at high concentration", "setting": "[2]; ADNF at or above 10 nM, Brenneman et al.", "value": "lose its neuroprotective action"}, {"measurement": "inhibitory activity against cell death caused by amyloid β toxicity- or APP mutant gene-induced disorders", "setting": "[2]; ADNF at or above nM levels, Hashimoto et al. 2001", "value": "reduced inhibitory activity"}]}]}
